Results from publication PMC7311426, “An amphipathic peptide with antibiotic activity against multidrug-resistant Gram-negative bacteria” (Nature Communications, 2020).
Values after ≈ are worked out from the molar mass of the structure shown. Like-named read-outs stand apart in the source and are kept apart here.

Test system: P. aeruginosa
Experiment: microbe, parasite or virus in culture
Details: Pseudomonas aeruginosa
Outline: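 Broth microdilution in MHB, 2-fold 12-point series from 128 or 64 down to 0.06 or 0.03 μg mL^−1, 5 × 10^5 CFU mL^−1. Extra runs in CAMHB per CLSI and in MHB with 1% agarose; n ≥ 6.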

## C[C@@H](O)[C@H]1C(=O)N2C(C(=O)O)=C(S[C@@H]3CN[C@H](C(=O)N(C)C)C3)[C@H](C)[C@H]12 [Meropenem, meropenem, reference compound]
ATCC27853, read-out: MIC, broth microdilution, P. aeruginosa ATCC 27853 spontaneous mutant, AA139 selection 4X, plate 1, colony 6, drug-free passage 1
  MIC: 0.5 µg/mL (≈ 1.3 µM)
ATCC27853, read-out: MIC, broth microdilution, P. aeruginosa ATCC 27853 spontaneous mutant, AA139 selection 4X, plate 1, colony 6, drug-free passage 5
  MIC: 0.5 µg/mL (≈ 1.3 µM)
ATCC27853, read-out: MIC, broth microdilution, P. aeruginosa ATCC 27853 spontaneous mutant, AA139 selection 4X, plate 2, colony 1, drug-free passage 1
  MIC: 0.25 µg/mL (≈ 0.652 µM)
ATCC27853, read-out: MIC, broth microdilution, P. aeruginosa ATCC 27853 spontaneous mutant, AA139 selection 4X, plate 2, colony 1, drug-free passage 5
  MIC: 0.25 µg/mL (≈ 0.652 µM)
ATCC27853, read-out: MIC, broth microdilution, P. aeruginosa ATCC 27853 spontaneous mutant, AA139 selection 4X, plate 2, colony 2, drug-free passage 1
  MIC: 0.5 µg/mL (≈ 1.3 µM)
ATCC27853, read-out: MIC, broth microdilution, P. aeruginosa ATCC 27853 spontaneous mutant, AA139 selection 4X, plate 2, colony 2, drug-free passage 5
  MIC: 0.25 µg/mL (≈ 0.652 µM)
ATCC27853, read-out: MIC, broth microdilution, P. aeruginosa ATCC 27853 spontaneous mutant, AA139 selection 4X, plate 2, colony 3, drug-free passage 1
  MIC: 0.5 µg/mL (≈ 1.3 µM)
ATCC27853, read-out: MIC, broth microdilution, P. aeruginosa ATCC 27853 spontaneous mutant, AA139 selection 4X, plate 2, colony 3, drug-free passage 5
  MIC: 0.25 µg/mL (≈ 0.652 µM)
ATCC27853, read-out: MIC, broth microdilution, P. aeruginosa ATCC 27853 spontaneous mutant, AA139 selection 4X, plate 2, colony 4, drug-free passage 1
  MIC: 0.5 µg/mL (≈ 1.3 µM)
ATCC27853, read-out: MIC, broth microdilution, P. aeruginosa ATCC 27853 spontaneous mutant, AA139 selection 4X, plate 2, colony 4, drug-free passage 5
  MIC: 0.25 µg/mL (≈ 0.652 µM)
ATCC27853, read-out: MIC, broth microdilution, P. aeruginosa ATCC 27853 spontaneous mutant, AA139 selection 8X, plate 1, colony 1, drug-free passage 1
  MIC: 0.5 µg/mL (≈ 1.3 µM)
ATCC27853, read-out: MIC, broth microdilution, P. aeruginosa ATCC 27853 spontaneous mutant, AA139 selection 8X, plate 1, colony 1, drug-free passage 5
  MIC: 0.5 µg/mL (≈ 1.3 µM)
ATCC27853, read-out: MIC, broth microdilution, P. aeruginosa ATCC 27853 spontaneous mutant, AA139 selection 8X, plate 1, colony 2, drug-free passage 1
  MIC: 0.25 µg/mL (≈ 0.652 µM)
ATCC27853, read-out: MIC, broth microdilution, P. aeruginosa ATCC 27853 spontaneous mutant, AA139 selection 8X, plate 1, colony 2, drug-free passage 5
  MIC: 0.5 µg/mL (≈ 1.3 µM)
ATCC27853, read-out: MIC, broth microdilution, P. aeruginosa ATCC 27853 spontaneous mutant, AA139 selection 8X, plate 1, colony 3, drug-free passage 1
  MIC: 0.25 µg/mL (≈ 0.652 µM)
ATCC27853, read-out: MIC, broth microdilution, P. aeruginosa ATCC 27853 spontaneous mutant, AA139 selection 8X, plate 1, colony 3, drug-free passage 5
  MIC: 0.25 µg/mL (≈ 0.652 µM)
ATCC27853, read-out: MIC, broth microdilution, P. aeruginosa ATCC 27853 spontaneous mutant, AA139 selection 8X, plate 1, colony 4, drug-free passage 1
  MIC: 0.5 µg/mL (≈ 1.3 µM)
ATCC27853, read-out: MIC, broth microdilution, P. aeruginosa ATCC 27853 spontaneous mutant, AA139 selection 8X, plate 1, colony 4, drug-free passage 5
  MIC: 0.5 µg/mL (≈ 1.3 µM)
ATCC27853, read-out: MIC, broth microdilution, P. aeruginosa ATCC 27853 spontaneous mutant, AA139 selection 8X, plate 1, colony 5, drug-free passage 1
  MIC: 0.5 µg/mL (≈ 1.3 µM)
ATCC27853, read-out: MIC, broth microdilution, P. aeruginosa ATCC 27853 spontaneous mutant, AA139 selection 8X, plate 1, colony 5, drug-free passage 5
  MIC: 0.25 µg/mL (≈ 0.652 µM)
read-out: BMD MIC, P. aeruginosa FADDI-070, MDR, PmxR, MHB/CAMHB, mode of 6 replicates
  MIC: 1 µg/mL (≈ 2.61 µM)
read-out: MIC, broth microdilution, P. aeruginosa UNT 138-1 spontaneous mutant, AA139 selection 4X, plate 1, colony 1, drug-free passage 1
  MIC: 0.12 µg/mL (≈ 0.313 µM)
read-out: MIC, broth microdilution, P. aeruginosa UNT 138-1 spontaneous mutant, AA139 selection 4X, plate 1, colony 1, drug-free passage 5
  MIC: 0.12 µg/mL (≈ 0.313 µM)
read-out: MIC, broth microdilution, P. aeruginosa UNT 138-1 spontaneous mutant, AA139 selection 4X, plate 1, colony 2, drug-free passage 1
  MIC: 0.12 µg/mL (≈ 0.313 µM)
read-out: MIC, broth microdilution, P. aeruginosa UNT 138-1 spontaneous mutant, AA139 selection 4X, plate 1, colony 2, drug-free passage 5
  MIC: 0.25 µg/mL (≈ 0.652 µM)
read-out: MIC, broth microdilution, P. aeruginosa UNT 138-1 spontaneous mutant, AA139 selection 4X, plate 1, colony 3, drug-free passage 1
  MIC: 0.06 µg/mL (≈ 0.156 µM)
read-out: MIC, broth microdilution, P. aeruginosa UNT 138-1 spontaneous mutant, AA139 selection 4X, plate 1, colony 3, drug-free passage 5
  MIC: 0.12 µg/mL (≈ 0.313 µM)
read-out: MIC, broth microdilution, P. aeruginosa UNT 138-1 spontaneous mutant, AA139 selection 4X, plate 1, colony 4, drug-free passage 1
  MIC: 0.06 µg/mL (≈ 0.156 µM)
read-out: MIC, broth microdilution, P. aeruginosa UNT 138-1 spontaneous mutant, AA139 selection 4X, plate 1, colony 4, drug-free passage 5
  MIC: 0.12 µg/mL (≈ 0.313 µM)
read-out: MIC, broth microdilution, P. aeruginosa UNT 138-1 spontaneous mutant, AA139 selection 4X, plate 1, colony 5, drug-free passage 1
  MIC: 0.12 µg/mL (≈ 0.313 µM)
read-out: MIC, broth microdilution, P. aeruginosa UNT 138-1 spontaneous mutant, AA139 selection 4X, plate 1, colony 5, drug-free passage 5
  MIC: 0.12 µg/mL (≈ 0.313 µM)
read-out: MIC, broth microdilution, P. aeruginosa UNT 138-1 spontaneous mutant, AA139 selection 4X, plate 1, colony 6, drug-free passage 1
  MIC: 0.06 µg/mL (≈ 0.156 µM)
read-out: MIC, broth microdilution, P. aeruginosa UNT 138-1 spontaneous mutant, AA139 selection 4X, plate 1, colony 6, drug-free passage 5
  MIC: 0.25 µg/mL (≈ 0.652 µM)
read-out: MIC, broth microdilution, P. aeruginosa UNT 138-1 spontaneous mutant, AA139 selection 4X, plate 1, colony 7, drug-free passage 1
  MIC: 0.06 µg/mL (≈ 0.156 µM)
read-out: MIC, broth microdilution, P. aeruginosa UNT 138-1 spontaneous mutant, AA139 selection 4X, plate 1, colony 7, drug-free passage 5
  MIC: 0.12 µg/mL (≈ 0.313 µM)
read-out: MIC, broth microdilution, P. aeruginosa UNT 138-1 spontaneous mutant, AA139 selection 4X, plate 2, colony 1, drug-free passage 1
  MIC: 0.06 µg/mL (≈ 0.156 µM)
read-out: MIC, broth microdilution, P. aeruginosa UNT 138-1 spontaneous mutant, AA139 selection 4X, plate 2, colony 1, drug-free passage 5
  MIC: 0.06 µg/mL (≈ 0.156 µM)
read-out: MIC, broth microdilution, P. aeruginosa UNT 138-1 spontaneous mutant, AA139 selection 4X, plate 2, colony 2, drug-free passage 1
  MIC: 0.25 µg/mL (≈ 0.652 µM)
read-out: MIC, broth microdilution, P. aeruginosa UNT 138-1 spontaneous mutant, AA139 selection 4X, plate 2, colony 2, drug-free passage 5
  MIC: 0.12 µg/mL (≈ 0.313 µM)
read-out: MIC, broth microdilution, P. aeruginosa UNT 138-1 spontaneous mutant, AA139 selection 4X, plate 2, colony 3, drug-free passage 1
  MIC: 0.12 µg/mL (≈ 0.313 µM)
read-out: MIC, broth microdilution, P. aeruginosa UNT 138-1 spontaneous mutant, AA139 selection 4X, plate 2, colony 3, drug-free passage 5
  MIC: 0.12 µg/mL (≈ 0.313 µM)
read-out: MIC, broth microdilution, P. aeruginosa UNT 138-1 spontaneous mutant, AA139 selection 4X, plate 2, colony 4, drug-free passage 1
  MIC: 0.12 µg/mL (≈ 0.313 µM)
read-out: MIC, broth microdilution, P. aeruginosa UNT 138-1 spontaneous mutant, AA139 selection 4X, plate 2, colony 4, drug-free passage 5
  MIC: 0.12 µg/mL (≈ 0.313 µM)
read-out: MIC, broth microdilution, P. aeruginosa UNT 138-1 spontaneous mutant, AA139 selection 4X, plate 2, colony 5, drug-free passage 1
  MIC: 0.5 µg/mL (≈ 1.3 µM)
read-out: MIC, broth microdilution, P. aeruginosa UNT 138-1 spontaneous mutant, AA139 selection 4X, plate 2, colony 5, drug-free passage 5
  MIC: 0.12 µg/mL (≈ 0.313 µM)
read-out: MIC, broth microdilution, P. aeruginosa UNT 138-1 spontaneous mutant, AA139 selection 4X, plate 2, colony 6, drug-free passage 1
  MIC: 0.5 µg/mL (≈ 1.3 µM)
read-out: MIC, broth microdilution, P. aeruginosa UNT 138-1 spontaneous mutant, AA139 selection 4X, plate 2, colony 6, drug-free passage 5
  MIC: 0.12 µg/mL (≈ 0.313 µM)
read-out: MIC, broth microdilution, P. aeruginosa UNT 138-1 spontaneous mutant, AA139 selection 4X, plate 2, colony 7, drug-free passage 1
  MIC: 0.06 µg/mL (≈ 0.156 µM)
read-out: MIC, broth microdilution, P. aeruginosa UNT 138-1 spontaneous mutant, AA139 selection 4X, plate 2, colony 7, drug-free passage 5
  MIC: 0.12 µg/mL (≈ 0.313 µM)
read-out: MIC, broth microdilution, P. aeruginosa UNT 138-1 spontaneous mutant, AA139 selection 8X, plate 1, colony 1, drug-free passage 1
  MIC: 0.06 µg/mL (≈ 0.156 µM)
read-out: MIC, broth microdilution, P. aeruginosa UNT 138-1 spontaneous mutant, AA139 selection 8X, plate 1, colony 1, drug-free passage 5
  MIC: 0.06 µg/mL (≈ 0.156 µM)
read-out: MIC, broth microdilution, P. aeruginosa UNT 138-1 spontaneous mutant, AA139 selection 8X, plate 1, colony 2, drug-free passage 1
  MIC: 0.06 µg/mL (≈ 0.156 µM)
read-out: MIC, broth microdilution, P. aeruginosa UNT 138-1 spontaneous mutant, AA139 selection 8X, plate 1, colony 2, drug-free passage 5
  MIC: 0.12 µg/mL (≈ 0.313 µM)
read-out: MIC, broth microdilution, P. aeruginosa UNT 138-1 spontaneous mutant, AA139 selection 8X, plate 1, colony 3, drug-free passage 1
  MIC: 0.12 µg/mL (≈ 0.313 µM)
read-out: MIC, broth microdilution, P. aeruginosa UNT 138-1 spontaneous mutant, AA139 selection 8X, plate 1, colony 3, drug-free passage 5
  MIC: 0.12 µg/mL (≈ 0.313 µM)
read-out: MIC, broth microdilution, P. aeruginosa UNT 138-1 spontaneous mutant, AA139 selection 8X, plate 1, colony 4, drug-free passage 1
  MIC: 0.12 µg/mL (≈ 0.313 µM)
read-out: MIC, broth microdilution, P. aeruginosa UNT 138-1 spontaneous mutant, AA139 selection 8X, plate 1, colony 4, drug-free passage 5
  MIC: 0.12 µg/mL (≈ 0.313 µM)
read-out: MIC, broth microdilution, P. aeruginosa UNT 138-1 spontaneous mutant, AA139 selection 8X, plate 1, colony 5, drug-free passage 1
  MIC: 0.06 µg/mL (≈ 0.156 µM)
read-out: MIC, broth microdilution, P. aeruginosa UNT 138-1 spontaneous mutant, AA139 selection 8X, plate 1, colony 5, drug-free passage 5
  MIC: 0.06 µg/mL (≈ 0.156 µM)
read-out: MIC, broth microdilution, P. aeruginosa UNT 138-1 spontaneous mutant, AA139 selection 8X, plate 2, colony 1, drug-free passage 1
  MIC: 0.06 µg/mL (≈ 0.156 µM)
read-out: MIC, broth microdilution, P. aeruginosa UNT 138-1 spontaneous mutant, AA139 selection 8X, plate 2, colony 1, drug-free passage 5
  MIC: 0.12 µg/mL (≈ 0.313 µM)
